US20040116420A1 (priority 2001, published 2004)

Assays:
[1] = tested on: HSV-1; experiment: Antiviral activity, HSV-1 in Vero cells, plaque method; type: cell-based; details: Human alphaherpesvirus 1, 20 hours, 90% inhibition of plaque formation
Summary of the method: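 This is a virus-yield read-out. The culture medium was frozen at −80° C and thawed, and the plaques it formed were counted. It came from Vero monolayers infected with 50,000 pfu HSV-1 and then exposed to the compound for 20 h at 37° C. EC90 is the concentration inhibiting 90% of plaque formation relative to the untreated infected control.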

[2] = target: T1, HSV-1 protease (Human herpesvirus 1, UniProt P10210); experiment: Enzymatic assay for HSV-1 protease (assembly) inhibitor, fluorescence polarization; type: biochemical; details: read-out: HSV-1 Enzyme inhibition IC50
T1 construct: 6xHis (N); made in house; host or cells: baculovirus expression system
T1 sequence (P10210 1-247): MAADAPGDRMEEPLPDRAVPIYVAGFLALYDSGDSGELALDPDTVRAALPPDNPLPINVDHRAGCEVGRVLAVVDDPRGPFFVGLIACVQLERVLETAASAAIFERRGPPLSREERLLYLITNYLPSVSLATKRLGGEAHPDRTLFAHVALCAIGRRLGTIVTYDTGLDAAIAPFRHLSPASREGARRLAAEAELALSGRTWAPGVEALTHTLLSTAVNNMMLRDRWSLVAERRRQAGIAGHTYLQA
Summary of the method: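 Fluorescence polarization read-out: after avidin stop, cleavage of a biotinylated DTAF-labelled release-site peptide by recombinant N-His6 HSV-1 protease was compared with no-inhibitor wells. Enzyme and compound were preincubated 30 min, then substrate reacted 60 min, all at room temperature, pH 7.4 citrate buffer with TCEP.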

[3] = tested on: Vero cells; experiment: Cytotoxicity, Vero cells, Alamar Blue; type: cell-based; details: 25 μM, 20 hours
Summary of the method: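 Living-cell ratio versus untreated control was read by Alamar Blue absorbance after about 6 h of dye incubation. Before that, Vero cells had received 25 μM test compound in 2% FBS-DMEM for 20 hours at 37 °C under 5% CO2.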

SMILES | EC90 [1] | IC50 [2] | Cell viability (% of control) [3]
Cc1c(NC(=O)c2ccccc2C(F)(F)F)ccc2nc(NC(C)(C)C(=O)N(C)CCc3ccccn3)oc(=O)c12 [Compound No.144, N-(5-Methyl-2-{1-methyl-1-[methyl-(2-pyridin-2-yl-ethyl)-carbamoyl]-ethylamino}-4-oxo-4H-benzo[d][1,3]oxazin-6-yl)-2-trifluoromethyl-benzamide] | > 12.5 µM | 2.3 µM | 76.1%
Cc1c(NC(=O)OC(C)(C)C)ccc2nc(N[C@H](C(=O)NCc3cccnc3)C(C)C)oc(=O)c12 [Compound No.24, (5-Methyl-2-{2-methyl-1S-[(pyridin-3-ylmethyl)-carbamoyl]-propylamino}-4-oxo-4H-benzo[d][1,3]oxazin-6-yl)-carbamic acid tert-butyl ester] | > 25 µM | > 20 µM | 99.5%
Cc1c(NC(=O)OC(C)(C)C)ccc2nc(N3C[C@H](OCc4ccccc4)C[C@H]3C(=O)NCc3ccccn3)oc(=O)c12 [Compound No.109, (2-{4R-Benzyloxy-2S-[(pyridin-2-ylmethyl)-carbamoyl]-pyrrolidin-1-yl}-5-methyl-4-oxo-4H-benzo[d][1,3]oxazin-6-yl)-carbamic acid tert-butyl ester] | 8.8 µM | 1.4 µM | 58.5%
Cc1c(NC(=O)c2ccc(F)cc2)ccc2nc(NC(C)(C)C(=O)N(C)CCc3ccccn3)oc(=O)c12 [Compound No.149, 4-Fluoro-N-(5-methyl-2-{1-methyl-1-[methyl-(2-pyridin-2-yl-ethyl)-carbamoyl]-ethylamino}-4-oxo-4H-benzo[d][1,3]oxazin-6-yl)-benzamide] | 10.6 µM | 1.5 µM | 65.4%
Cc1oc(C(C)(C)C)cc1C(=O)Nc1ccc2nc(NC(C)(C)C(=O)N(C)CCc3ccccn3)oc(=O)c2c1C [Compound No.174, 5-tert-Butyl-2-methyl-furan-3-carboxylic acid (5-methyl-2-{1-methyl-1-[methyl-(2-pyridin-2-yl-ethyl)-carbamoyl]-ethylamino}-4-oxo-4H-benzo[d][1,3]oxazin-6-yl)-amide] | > 12.5 µM | 9.3 µM | 30.1%
Cc1c(NC(=O)OC(C)(C)C)ccc2nc(N3CCCC[C@H]3C(=O)N(C)CCc3ccncc3)oc(=O)c12 [Compound No.108, (5-Methyl-2-{2S-[methyl-(2-pyridin-4-yl-ethyl)-carbamoyl]-piperidin-1-yl}-4-oxo-4H-benzo[d][1,3]oxazin-6-yl)-carbamic acid tert-butyl ester] | > 12.5 µM | 4.4 µM | 97.9%
Cc1c(NC(=O)OC(C)(C)C)ccc2nc(N3C[C@H](OCc4ccccc4)C[C@H]3C(=O)N(C)CCc3ccncc3)oc(=O)c12 [Compound No.116, (2-{4R-Benzyloxy-2S-[methyl-(2-pyridin-4-yl-ethyl)-carbamoyl]-pyrrolidin-1-yl}-5-methyl-4-oxo-4H-benzo[d][1,3]oxazin-6-yl)-carbamic acid tert-butyl ester] | 6.5 µM | > 10 µM | 68.2%
CCCc1ccc(C(=O)Nc2ccc3nc(NC(C)(C)C(=O)N(C)CCc4ccccn4)oc(=O)c3c2C)cc1 [Compound No.166, N-(5-Methyl-2-{1-methyl-1-[methyl-(2-pyridin-2-yl-ethyl)-carbamoyl]-ethylamino}-4-oxo-4H-benzo[d][1,3]oxazin-6-yl)-4-propyl-benzamide] | 5.8 µM | 1.2 µM | 15.9%
Cc1c(NC(=O)OC(C)(C)C)ccc2nc(N(C)[C@@H](Cc3ccccc3)C(=O)NCc3ccncc3)oc(=O)c12 [Compound No.80, [5-Methyl-2-(methyl-{2-phenyl-1S-[(pyridin-4-ylmethyl)-carbamoyl]-ethyl}-amino)-4-oxo-4H-benzo[d][1,3]oxazin-6-yl]-carbamic acid tert-butyl ester] | 5.9 µM | 0.9 µM | 48.0%
COc1ccccc1C(=O)Nc1ccc2nc(NC(C)(C)C(=O)N(C)CCc3ccccn3)oc(=O)c2c1C [Compound No.161, 2-Methoxy-N-(5-methyl-2-{1-methyl-1-[methyl-(2-pyridin-2-yl-ethyl)-carbamoyl]-ethylamino}-4-oxo-4H-benzo[d][1,3]oxazin-6-yl)-benzamide] | 11.4 µM | 2.8 µM | 44.1%
CCCCc1ccc(C(=O)Nc2ccc3nc(NC(C)(C)C(=O)N(C)CCc4ccccn4)oc(=O)c3c2C)cc1 [Compound No.167, 4-Butyl-N-(5-methyl-2-{1-methyl-1-[methyl-(2-pyridin-2-yl-ethyl)-carbamoyl]-ethylamino}-4-oxo-4H-benzo[d][1,3]oxazin-6-yl)-benzamide] | 3.6 µM | 1.7 µM | −6.1%
Cc1c(NC(=O)OC(C)(C)C)ccc2nc(NC(C)(C)C(=O)NCc3ccncc3)oc(=O)c12 [Compound No.34, (5-Methyl-2-{1-methyl-1-[(pyridin-4-ylmethyl)-carbamoyl]-ethylamino}-4-oxo-4H-benzo[d][1,3]oxazin-6-yl)-carbamic acid tert-butyl ester] | > 25 µM | 1.6 µM | 102.0%
Cc1c(NC(=O)OC(C)(C)C)ccc2nc(N(C)[C@@H](C)C(=O)N(C)Cc3ccccn3)oc(=O)c12 [Compound No.75, (5-Methyl-2-{methyl-[1S-(methyl-pyridin-2-ylmethyl-carbamoyl)-ethyl]-amino}-4-oxo-4H-benzo[d][1,3]oxazin-6-yl)-carbamic acid tert-butyl ester] | > 12.5 µM | 2.2 µM | 93.1%
Cc1c(NC(=O)OC(C)(C)C)ccc2nc(N3CCCC[C@H]3C(=O)NCc3cccnc3)oc(=O)c12 [Compound No.103, (5-Methyl-4-oxo-2-{2S-[(pyridin-3-ylmethyl)-carbamoyl]-piperidin-1-yl}-4H-benzo[d][1,3]oxazin-6-yl)-carbamic acid tert-butyl ester] | > 12.5 µM | 2.6 µM | 68.9%
Cc1c(NC(=O)OC(C)(C)C)ccc2nc(N3CCCC[C@H]3C(=O)N(C)CCc3cccnc3)oc(=O)c12 [Compound No.107, (5-Methyl-2-{2S-[methyl-(2-pyridin-3-yl-ethyl)-carbamoyl]-piperidin-1-yl}-4-oxo-4H-benzo[d][1,3]oxazin-6-yl)-carbamic acid tert-butyl ester] | > 12.5 µM | 7.4 µM | 45.4%
Cc1cccc(C(=O)Nc2ccc3nc(NC(C)(C)C(=O)N(C)CCc4ccccn4)oc(=O)c3c2C)c1 [compound 157, 3-Methyl-N-(5-methyl-2-{1-methyl-1-[methyl-(2-pyridin-2-yl-ethyl)-carbamoyl]-ethylamino}-4-oxo-4H-benzo[d][1,3]oxazin-6-yl)-benzamide] | 6.2 µM | 3.3 µM | 70.5%
Cc1c(NC(=O)OC(C)(C)C)ccc2nc(N[C@@H](C)C(=O)N(C)CCc3ccccn3)oc(=O)c12 [Compound No.43, (5-Methyl-2-{1S-[methyl-(2-pyridin-2-yl-ethyl)-carbamoyl]-ethylamino}-4-oxo-4H-benzo[d][1,3]oxazin-6-yl)-carbamic acid tert-butyl ester] | 9.1 µM | 0.7 µM | 104.0%
